{"source": "patent EP3418270A1", "about": "“NOVEL BIPHENYLSULFOXIMINES AS ALLOSTERIC MODULATORS OF THE DOPAMINE D1 RECEPTOR” (Universidad Complutense De Madrid, priority 2017, dated 2018)", "key": {"[1]": {"target": "T1, human D1 receptors (Homo sapiens, UniProt P21728)", "T1 construct": "endogenously expressed human D1 receptors in SK-N-MC cell line; host or cells: SK-N-MC human neuroblastoma cells", "T1 sequence (P21728 whole entry)": "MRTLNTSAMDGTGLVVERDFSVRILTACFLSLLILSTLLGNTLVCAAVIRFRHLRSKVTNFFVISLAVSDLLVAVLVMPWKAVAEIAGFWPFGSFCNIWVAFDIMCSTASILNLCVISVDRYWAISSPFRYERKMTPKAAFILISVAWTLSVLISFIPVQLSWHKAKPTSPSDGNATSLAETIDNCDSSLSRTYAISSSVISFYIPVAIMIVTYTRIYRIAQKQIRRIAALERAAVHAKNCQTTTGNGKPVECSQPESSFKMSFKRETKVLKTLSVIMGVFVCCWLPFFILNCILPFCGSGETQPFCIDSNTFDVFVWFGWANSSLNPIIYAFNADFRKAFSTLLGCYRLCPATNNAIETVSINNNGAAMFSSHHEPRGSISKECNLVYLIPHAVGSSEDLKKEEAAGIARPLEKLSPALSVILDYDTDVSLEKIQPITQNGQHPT", "test": "Allosteric modulation of human dopamine D1 receptors: dopamine-induced cAMP production (HTRF) in SK-N-MC cells", "type": "cell-based", "conditions": "for Potentiation (%) at 5 µM / Potentiation (%) at 10 µM: potentiation of dopamine Emax; for Potentiation (%) at 5 µM: compound at 5 µM (values marked *); for Potentiation (%) at 10 µM: compound at 10 µM", "method": "Functional studies at human D1 receptors were carried out in endogenously expressed human D1 receptors in SK-N-MC cell line (ATCC). SK-N-MC cells were thawed and seeded into a black 96-well plate (1×10^4 cells/well) in Optimem containing 500 µM IBMX.\nCells were treated with the test compounds for 15 min at 25°C and dopamine was added to the corresponding wells and incubated for additional 15 min at 25°C. Treated cells were lysed and the cAMP concentration was measured by homogeneous time-resolved fluorescence energy transfer (HTRF; Cisbio Kit). HTRF was read in a Tecan M1000 Genius Pro reader (λexcitation = 320 nm, λemission = 620 nm and 665 nm, 30 flashes).\n(§1) Data were normalized to dopamine maximum effect and fitted to a 4-parameter logistic equation Prism v2.1 (GraphPad Inc).\nIf the observed effect is dose-dependent, compounds were then tested in the cAMP assay, this time maintaining a fixed concentration of dopamine (=EC70) while increasing the concentration of the compound, and the potentiation of the dopamine effect was measured."}, "[2]": {"target": "T2, recombinant human D2 receptors (Homo sapiens, UniProt P14416)", "T2 construct": "expressed in transfected cells; host or cells: CHO cell line, stably transfected in-house", "T2 sequence (P14416 whole entry)": "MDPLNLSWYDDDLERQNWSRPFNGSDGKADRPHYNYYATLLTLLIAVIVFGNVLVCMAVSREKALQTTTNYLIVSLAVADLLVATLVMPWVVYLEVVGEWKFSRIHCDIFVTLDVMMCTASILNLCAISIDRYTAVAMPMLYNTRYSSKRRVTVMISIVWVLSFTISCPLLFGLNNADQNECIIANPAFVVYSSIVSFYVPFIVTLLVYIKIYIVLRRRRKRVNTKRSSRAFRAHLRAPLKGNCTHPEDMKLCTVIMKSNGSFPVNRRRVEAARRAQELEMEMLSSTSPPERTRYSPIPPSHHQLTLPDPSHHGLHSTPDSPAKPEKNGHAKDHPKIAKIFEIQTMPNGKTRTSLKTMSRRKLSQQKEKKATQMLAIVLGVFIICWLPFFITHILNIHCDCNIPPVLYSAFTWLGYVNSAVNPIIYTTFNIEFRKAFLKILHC", "test": "Functional assay at human D2 receptors: cAMP (HTRF), forskolin-stimulated CHO cells", "type": "cell-based", "conditions": "Figure 3", "method": "Functional studies at D2 receptors were carried out in recombinant human D2 receptors stably transfected in-house in a CHO cell line. Cells were thawed and seeded into a 96-well plate (5×10^3 cells/well) in Optimem containing 500 µM IBMX.\nCells were treated with the test compounds for 5 min at 37°C and dopamine was added to the corresponding wells and incubated for additional 10 min at 37°C. After this time cells were treated with 10 µM forskolin for 5 min at 37°C. Treated cells were lysed and the cAMP concentration was measured by homogeneous time-resolved fluorescence energy transfer (HTRF; Cisbio Kit). HTRF was read in a Tecan M1000 Genius Pro reader (λexcitation = 320 nm, λemission = 620 nm and 665 nm, 30 flashes).\nas §1"}, "[3]": {"target": "human D3 receptors (Homo sapiens, UniProt P35462)", "sequence (P35462 whole entry)": "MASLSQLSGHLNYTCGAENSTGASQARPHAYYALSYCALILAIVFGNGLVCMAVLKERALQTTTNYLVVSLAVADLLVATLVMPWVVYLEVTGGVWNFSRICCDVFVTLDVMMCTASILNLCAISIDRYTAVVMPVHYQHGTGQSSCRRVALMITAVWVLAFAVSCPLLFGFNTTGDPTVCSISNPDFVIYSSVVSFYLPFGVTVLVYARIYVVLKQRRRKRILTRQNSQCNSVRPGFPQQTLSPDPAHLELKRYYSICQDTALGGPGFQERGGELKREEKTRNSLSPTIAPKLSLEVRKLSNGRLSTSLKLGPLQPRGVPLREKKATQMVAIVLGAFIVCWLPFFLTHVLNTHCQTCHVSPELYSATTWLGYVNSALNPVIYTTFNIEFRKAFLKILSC", "test": "Functional assay at human D3 receptors: PatHunter Beta-arrestin express GPCR assay", "type": "cell-based", "conditions": "beta-arrestin translocation, Figure 4", "method": "(§2) Functional studies at both human D3 and D4 receptors receptors were carried by employing a PatHunter Beta-arrestin express GPCR assay kit from DiscoverX. Cells were plated maintained for 48 h at 37°C in a 5% CO2 atmosphere in cell plating reagen t provided in the kit.\n(§3) Cells were treated with the test compounds for 30 min at 37°C and dopamine was added to the corresponding wells and incubated for additional 90 min at 37°C. Cells were then treated with the working detection solution provided with the kit for 1 h and beta-arrestin translocation was measured by luminescence detection (integration time=500 ms) in a Tecan M1000 Genius Pro reader.\nas §1"}, "[4]": {"target": "T3, human D4 receptors (Homo sapiens, UniProt P21917)", "T3 sequence (P21917 1-419)": "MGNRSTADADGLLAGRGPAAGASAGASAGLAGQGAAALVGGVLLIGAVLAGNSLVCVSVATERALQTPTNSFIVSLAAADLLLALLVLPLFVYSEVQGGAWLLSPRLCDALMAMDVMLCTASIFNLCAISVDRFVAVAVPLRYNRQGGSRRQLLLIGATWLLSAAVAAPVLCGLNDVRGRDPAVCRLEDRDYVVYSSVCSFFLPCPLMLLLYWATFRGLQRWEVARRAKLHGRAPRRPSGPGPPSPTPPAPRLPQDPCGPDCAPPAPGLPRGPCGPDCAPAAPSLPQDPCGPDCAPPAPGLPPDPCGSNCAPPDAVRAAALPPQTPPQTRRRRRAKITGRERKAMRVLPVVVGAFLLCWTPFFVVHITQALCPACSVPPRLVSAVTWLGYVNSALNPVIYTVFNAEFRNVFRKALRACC", "test": "Functional assay at human D4 receptors: PatHunter Beta-arrestin express GPCR assay", "type": "cell-based", "conditions": "beta-arrestin translocation, Figure 5", "method": "as §2, §3, §1"}, "[5]": {"target": "human D5 receptors (Homo sapiens, UniProt P21918)", "sequence (P21918 whole entry)": "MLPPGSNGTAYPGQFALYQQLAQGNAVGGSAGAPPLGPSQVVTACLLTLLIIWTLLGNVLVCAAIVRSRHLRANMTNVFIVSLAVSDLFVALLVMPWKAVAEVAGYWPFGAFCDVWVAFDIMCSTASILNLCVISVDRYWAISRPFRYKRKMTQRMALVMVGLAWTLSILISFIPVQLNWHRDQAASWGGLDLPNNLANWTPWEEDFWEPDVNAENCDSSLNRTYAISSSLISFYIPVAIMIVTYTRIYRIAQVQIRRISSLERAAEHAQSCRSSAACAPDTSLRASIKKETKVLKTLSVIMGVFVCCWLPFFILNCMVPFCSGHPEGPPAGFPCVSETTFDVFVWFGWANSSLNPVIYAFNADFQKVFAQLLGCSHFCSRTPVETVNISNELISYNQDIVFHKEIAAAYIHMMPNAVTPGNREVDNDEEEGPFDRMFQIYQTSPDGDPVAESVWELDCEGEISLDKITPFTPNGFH", "test": "Functional assay at human D5 receptors: cAMP Hunter express DRD5 assay", "type": "cell-based", "conditions": "cAMP formation, Figure 6", "method": "Functional studies at human D5 receptors receptors were carried by employing a cAMP Hunter express DRD5 assay kit from DiscoverX. Cells were plated maintained for 24 h at 37°C in a 5% CO2 atmosphere in cell plating reagent provided in the kit.\nCells were treated with the test compounds for 15 min at 37°C and dopamine was added to the corresponding wells and incubated for additional 30 min at 37°C. Cells were then treated with the cAMP detection solution provided with the kit for 1 h and then cAMP solution A was added to each well and incubated for 3 h at RT. cAMP formation was measured by luminescence detection (integration time=500 ms) in a Tecan M1000 Genius Pro reader.\nas §1"}, "[6]": {"target": "T4, human dopamine D1 receptor (Homo sapiens, UniProt P21728)", "T4 sequence (P21728 whole entry)": "as the sequence (P21728 whole entry) above", "test": "Radioligand binding assay at human D1 receptors ([3H]SCH23390 displacement, membranes)", "set-up": "purchased Perkin Elmer", "conditions": "0.7 nM [3H]SCH23390, orthosteric site", "method": "Assays were carried out by using plasma membranes (12 µg/well) expressing human dopamine D1 receptor (Perkin Elmer). Membranes were incubated in a Multiscreen FC 96-well plate (Millipore) with 0.7 nM [^3H]SCH23390 (Perkin Elmer) and increasing amounts of the test compound in assay buffer (50 mM Tris-HCl, 5 mM MgCl2; pH=7.4) for 1 h at 27°C. After this time the well content was filtered through a Millipore manifold and membranes washed 4 times with assay buffer. Plate was dried and radioactivity was measured in a Microbeta Trilux liquid scintillation reader (Perkin-Elmer). Non-specific binding was determined in the presence of 1 µM (+)-butaclamol.\nData were normalized to percentage of specific binding and fitted to a 4-parameter logistic equation with Prism v2.1 (GraphPad Inc)."}, "[7]": {"target": "T4, human dopamine D1 receptor", "test": "Agonist effect at human dopamine D1 receptors: cAMP (HTRF) in SK-N-MC cells without dopamine", "type": "cell-based", "set-up": "endogenously expressed human D1 receptors in SK-N-MC cell line; host or cells: SK-N-MC human neuroblastoma cells", "conditions": "in the absence of dopamine, cAMP (Figure 2)", "method": "SK-N-MC cells seeded into a black 96-well plate (1×10^4 cells/well) in Optimem containing 500 µM IBMX were treated with the test compounds for 15 min at 25°C. Treated cells were lysed and the cAMP concentration was measured by homogeneous time-resolved fluorescence energy transfer (HTRF; Cisbio Kit). HTRF was read in a Tecan M1000 Genius Pro reader (λexcitation = 320 nm, λemission = 620 nm and 665 nm, 30 flashes).\nas §1"}}, "data": [{"smiles": "C[S@@](=N)(=O)c1ccc(-c2ccccc2OCF)cc1", "note": "[(R)-Ik, (R)-2-(Fluoromethoxy)-4'-(S-methylsulfonimidoyl)biphenyl]", "values": [{"measurement": "Potentiation (%) at 5 µM", "setting": "[1]", "result": 63, "unit": "%"}, {"measurement": "functional subtype selectivity against dopamine D2 receptor", "setting": "[2]", "result": "functional subtype selectivity"}, {"measurement": "functional subtype selectivity against D3 receptor", "setting": "[3]", "result": "functional subtype selectivity"}, {"measurement": "functional subtype selectivity against D4 receptor", "setting": "[4]", "result": "functional subtype selectivity"}, {"measurement": "functional subtype selectivity against D5 receptor", "setting": "[5]", "result": "functional subtype selectivity"}, {"measurement": "inhibition at 10 µM", "setting": "[6]", "result": 12, "unit": "%"}, {"measurement": "intrinsic agonist activity", "setting": "[7]", "result": "no potentiation"}]}, {"smiles": "CN=S(C)(=O)c1ccc(-c2ccccc2OC(F)F)cc1", "note": "(stereo not drawn) [Ib, 2-(Difluoromethoxy)-4'-(N,S-dimethylsulfonimidoyl)biphenyl]", "values": [{"measurement": "Potentiation (%) at 10 µM", "setting": "[1]", "result": 64, "unit": "%"}]}, {"smiles": "C[S@](=N)(=O)c1ccc(-c2ccccc2OCF)cc1", "note": "[(S)-Ik, (S)-2-(Fluoromethoxy)-4'-(S-methylsulfonimidoyl)biphenyl]", "values": [{"measurement": "Potentiation (%) at 5 µM", "setting": "[1]", "result": 47, "unit": "%"}, {"measurement": "functional subtype selectivity against dopamine D2 receptor", "setting": "[2]", "result": "functional subtype selectivity"}, {"measurement": "functional subtype selectivity against D3 receptor", "setting": "[3]", "result": "functional subtype selectivity"}, {"measurement": "functional subtype selectivity against D4 receptor", "setting": "[4]", "result": "functional subtype selectivity"}, {"measurement": "functional subtype selectivity against D5 receptor", "setting": "[5]", "result": "functional subtype selectivity"}, {"measurement": "inhibition at 10 µM", "setting": "[6]", "result": 6, "unit": "%"}, {"measurement": "intrinsic agonist activity", "setting": "[7]", "result": "no potentiation"}]}, {"smiles": "CCS(=N)(=O)c1ccc(-c2ccccc2OCF)cc1", "note": "(stereo not drawn) [Ii, 2-(Fluoromethoxy)-4'-(S-ethylsulfonimidoyl)biphenyl]", "values": [{"measurement": "Potentiation (%) at 10 µM", "setting": "[1]", "result": 54, "unit": "%"}]}, {"smiles": "CN=S(C)(=O)c1ccc(-c2ccccc2OCF)cc1Cl", "note": "(stereo not drawn) [Ij, 3'-Chloro-2-(fluoromethoxy)-4'-(N,S-dimethylsulfonimidoyl)biphenyl]", "values": [{"measurement": "Potentiation (%) at 10 µM", "setting": "[1]", "result": 35, "unit": "%"}]}, {"smiles": "CS(=N)(=O)c1ccc(-c2ccccc2OC(F)(F)F)cc1Cl", "note": "(stereo not drawn) [If, 3'-Chloro-4'-(S-methylsulfonimidoyl)-2-(trifluoromethoxy)biphenyl]", "values": [{"measurement": "Potentiation (%) at 10 µM", "setting": "[1]", "result": 30, "unit": "%"}]}, {"smiles": "CCS(=N)(=O)c1ccc(-c2ccccc2OC(F)F)cc1", "note": "(stereo not drawn) [Ic, 2-(Difluoromethoxy)-4'-(S-ethylsulfonimidoyl)biphenyl]", "values": [{"measurement": "Potentiation (%) at 10 µM", "setting": "[1]", "result": 39, "unit": "%"}]}, {"smiles": "CS(=N)(=O)c1ccc(-c2ccccc2OC(F)F)cc1", "note": "(stereo not drawn) [Ia, 2-(Difluoromethoxy)-4'-(S-methylsulfonimidoyl)biphenyl]", "values": [{"measurement": "Potentiation (%) at 10 µM", "setting": "[1]", "result": 27, "unit": "%"}]}, {"smiles": "CN=S(C)(=O)c1ccc(-c2ccccc2OC(F)F)cc1Cl", "note": "(stereo not drawn) [Ie, 3'-Chloro-2-(difluoromethoxy)-4'-(N,S-dimethylsulfonimidoyl)biphenyl]", "values": [{"measurement": "Potentiation (%) at 10 µM", "setting": "[1]", "result": 33, "unit": "%"}]}, {"smiles": "CS(=N)(=O)c1ccc(-c2ccccc2OCF)cc1", "note": "(racemic) [Ik, 2-(Fluoromethoxy)-4'-(S-methylsulfonimidoyl)biphenyl]", "values": [{"measurement": "EC50", "setting": "[1]; potency in the presence of dopamine (fixed concentration = EC70)", "result": 60, "unit": "nM"}, {"measurement": "Potentiation (%) at 5 µM", "setting": "[1]", "result": 35, "unit": "%"}, {"measurement": "Potentiation (%) at 10 µM", "setting": "[1]", "result": 55, "unit": "%"}, {"measurement": "functional subtype selectivity against dopamine D2 receptor", "setting": "[2]", "result": "functional subtype selectivity"}, {"measurement": "functional subtype selectivity against D3 receptor", "setting": "[3]", "result": "functional subtype selectivity"}, {"measurement": "functional subtype selectivity against D4 receptor", "setting": "[4]", "result": "functional subtype selectivity"}, {"measurement": "functional subtype selectivity against D5 receptor", "setting": "[5]", "result": "functional subtype selectivity"}, {"measurement": "inhibition at 10 µM", "setting": "[6]", "result": 36, "unit": "%"}, {"measurement": "intrinsic agonist activity", "setting": "[7]", "result": "no potentiation"}]}, {"smiles": "CS(=N)(=O)c1ccc(-c2ccccc2OC(F)F)cc1Cl", "note": "(stereo not drawn) [Id, 3'-Chloro-2-(difluoromethoxy)-4'-(S-methylsulfonimidoyl)biphenyl]", "values": [{"measurement": "Potentiation (%) at 10 µM", "setting": "[1]", "result": 25, "unit": "%"}]}, {"smiles": "CN=S(C)(=O)c1ccc(-c2ccccc2OC(F)(F)F)cc1Cl", "note": "(stereo not drawn) [Ig, 3'-Chloro-2-(trifluoromethoxy)-4'-(N,S-dimethylsulfonimidoyl)biphenyl]", "values": [{"measurement": "Potentiation (%) at 10 µM", "setting": "[1]", "result": 27, "unit": "%"}]}, {"smiles": "CN=S(C)(=O)c1ccc(-c2ccccc2OCF)cc1", "note": "(stereo not drawn) [Ih, 4'-(N,S-Dimethylsulfonimidoyl)-2-(fluoromethoxy)biphenyl]", "values": [{"measurement": "Potentiation (%) at 10 µM", "setting": "[1]", "result": 30, "unit": "%"}]}]}
